Reference: patent US8809579B2, “Glucagon receptor antagonist compounds, compositions containing such compounds and methods of use” (Merck Sharp & Dohme Corp., priority 2009, dated 2014)

Biological target: T1, human glucagon receptor (Homo sapiens, UniProt P47871)
T1 construct: expressed in transfected cells; cell membranes used
Test: Glucagon Receptor Binding Assay
Conditions: 125I-Glucagon binding to membranes of CHO cells expressing cloned human glucagon receptor; value for the more active diastereomer where both were prepared
Experimental: A stable CHO (Chinese hamster ovary) cell line expressing cloned human glucagon receptor was maintained as described (Chiechi, et. al. J Biol Chem 272, 7765-9 (1997); Cascieri, et. al. J Biol Chem 274, 8694-7 (1999)). To determine antagonistic binding affinity of compounds, 0.001-0.003 mg of cell membranes from these cells were pre-incubated with 0.100 mg WGA-coated PVT SPA beads (Amersham) for 20 minutes at room temperature in 25 μL of a buffer containing 50 mM Tris-HCl (pH 7.5), 5 mM MgCl2, 2 mM EDTA, 0.1% BSA and 3% glycerol in Costar 384 well plates with clear bottoms (#3706). Next, 25 μL of ^125I-Glucagon (New England Nuclear, Mass.) (1×10^−14 mol per well) and either 1 μL solutions of test compounds or 0.001 mM unlabeled glucagon or DMSO were added and mixed. After 4-12 hours incubation at room temperature, the radioactivity bound to the cell membranes was determined in a radioactive emission detection counter (Wallac-Microbeta). Data were analyzed using the Data Analyzer software program of Merck & Co., Inc. The IC50 values were calculated using non-linear regression analysis assuming single-site competition.

T1 sequence (P47871 26-477): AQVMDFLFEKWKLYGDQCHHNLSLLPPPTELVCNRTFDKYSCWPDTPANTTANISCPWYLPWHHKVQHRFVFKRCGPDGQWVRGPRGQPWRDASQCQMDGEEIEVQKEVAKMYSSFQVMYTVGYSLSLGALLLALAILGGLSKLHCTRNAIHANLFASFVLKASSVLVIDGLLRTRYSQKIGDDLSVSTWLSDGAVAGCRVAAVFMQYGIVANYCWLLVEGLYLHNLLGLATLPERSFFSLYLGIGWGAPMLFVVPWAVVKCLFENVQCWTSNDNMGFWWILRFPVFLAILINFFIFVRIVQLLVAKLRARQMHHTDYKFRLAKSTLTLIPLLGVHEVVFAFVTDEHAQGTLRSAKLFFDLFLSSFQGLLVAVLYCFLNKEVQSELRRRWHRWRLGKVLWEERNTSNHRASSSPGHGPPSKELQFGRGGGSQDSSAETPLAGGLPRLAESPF

| IC50 | Structure (SMILES) |
| --- | --- |
| 16 nM | CCC[C@H](c1ccc(C(=O)NCCC(=O)O)cc1)[C@@H](Oc1ccc(C)c(C#N)c1)c1ccc(Cl)cc1 [Example 16] |
| 3.6 nM | CCC[C@H](c1ccc(C(=O)NCCC(=O)O)cc1)[C@@H](Oc1ccc(C(F)(F)F)cc1C#N)c1ccc(Cl)cc1 [Example 80] |
| 7.6 nM | CCC[C@H](c1ccc(C(=O)NCCC(=O)O)cc1)[C@@H](Oc1cc(C(F)(F)F)ccc1C#N)c1ccc(Cl)cc1 [Example 79] |
| 6.2 nM | CCC[C@H](c1ccc(C(=O)NCCC(=O)O)cc1)[C@@H](Oc1ccc(C#N)c2ccccc12)c1ccc(Cl)cc1 [Example 9] |
| 12 nM | CCC[C@H](c1ccc(C(=O)NCCC(=O)O)cc1)[C@H](Oc1ccc(C(F)(F)F)cc1Cl)c1ccc(Cl)cc1 [Example 65] |
| 32 nM | CCC[C@H](c1ccc(C(=O)NCCC(=O)O)cc1)[C@@H](OCc1ccc(OC(F)(F)F)cc1)c1ccc(Cl)cc1 [Example 72, N-{4-[(1R)-1-((R)-(4-chlorophenyl){[4-(trifluoromethoxy)benzyl]oxy}methyl)butyl]benzoyl}-β-alanine] |
| 0.3 nM | CCC[C@H](c1ccc(C(=O)NCCC(=O)O)cc1)[C@@H](Oc1ccc(-c2ccc(C(F)(F)F)cc2)cc1C#N)c1ccc(Cl)cc1 [Example 59] |
| 7.2 nM | CCC[C@H](c1ccc(C(=O)NCCC(=O)O)cc1)[C@@H](Oc1ccnc2cc(C)ccc12)c1ccc(Cl)cc1 [Example 68, N-[4-((1R)-1-{(R)-(4-chlorophenyl)[(7-methylquinolin-4-yl)oxy]methyl}butyl)benzoyl]-β-alanine] |
| 16 nM | CCCC(c1ccc(C(=O)NCCC(=O)O)cc1)C(COc1ccc2cc(OC)ccc2c1)c1ccc(Cl)cc1 (racemic) [Example 86, N-[4-(1-{1-(4-chlorophenyl)-2-[(6-methoxy-2-naphthyl)oxy]ethyl}butyl)benzoyl]-β-alanine] |
| 6.6 nM | CCC[C@H](c1ccc(C(=O)NCCC(=O)O)cc1)[C@@H](Oc1ccnc2c(C)cc(Cl)cc12)c1ccc(Cl)cc1 [Example 67, N-(4-{(1R)-1-[(R)-[(6-chloro-8-methylquinolin-4-yl)oxy](4-chlorophenyl)methyl]butyl}benzoyl)-β-alanine] |
| 20 nM | CCC[C@H](c1ccc(C(=O)NCCC(=O)O)cc1)[C@@H](OCc1ccc(-c2ccccc2)cc1)c1ccc(Cl)cc1 [Example 74, N-(4-{(1R)-1-[(R)-(biphenyl-4-ylmethoxy)(4-chlorophenyl)methyl]butyl}benzoyl)-β-alanine] |
| 16 nM | CCC[C@H](c1ccc(C(=O)NCCC(=O)O)cc1)[C@@H](Oc1ccc(Cl)c(Cl)c1)c1ccc(Cl)cc1 [Example 1, N-(4-{(1R)-1-[(R)-(4-chlorophenyl)(3,4-dichlorophenoxy)methyl]butyl}benzoyl)-β-alanine] |
| 25 nM | CCC[C@H](c1ccc(C(=O)NCCC(=O)O)cc1)[C@@H](Oc1ccc(C#N)c(Cl)c1)c1ccc(Cl)cc1 [Example 18] |
| 38 nM | CCC[C@H](c1ccc(C(=O)NCCC(=O)O)cc1)[C@@H](OCc1ccc2ccccc2c1)c1ccc(Cl)cc1 [Example 73, N-(4-{(1R)-1-[(R)-(4-chlorophenyl)(2-naphthylmethoxy)methyl]butyl}benzoyl)-β-alanine] |
| 1.1 nM | CCC[C@H](c1ccc(C(=O)NCCC(=O)O)cc1)[C@@H](Oc1cc(Cl)c(Cl)c(C#N)c1)c1ccc(Cl)cc1 [Example 85] |
| 9.2 nM | CCC[C@H](c1ccc(C(=O)NCCC(=O)O)cc1)[C@@H](Oc1ccc(-c2cccn2C)cc1)c1ccc(Cl)cc1 [Example 47] |
| 18 nM | N#Cc1cc(Cl)cc(O[C@@H](c2ccc(Cl)cc2)[C@H](CCC(F)(F)F)c2ccc(C(=O)NCCC(=O)O)cc2)c1 [Example 75, N-(4-{(1R)-1-[(R)-(3-chloro-5-cyanophenoxy)(4-chlorophenyl)methyl]-4,4,4-trifluorobutyl}benzoyl)-β-alanine] |
| 5.9 nM | CCC[C@H](c1ccc(C(=O)NCCC(=O)O)cc1)[C@@H](Oc1ccc(C(F)(F)F)c(C#N)c1)c1ccc(Cl)cc1 [Example 15] |
| 5.5 nM | CCC[C@H](c1ccc(C(=O)NCCC(=O)O)cc1)[C@@H](Oc1ccnc2cc(C#N)ccc12)c1ccc(Cl)cc1 [Example 71, N-[4-((1R)-1-{(R)-(4-chlorophenyl)[(7-cyanoquinolin-4-yl)oxy]methyl}butyl)benzoyl]-β-alanine] |
| 2.1 nM | CCC[C@H](c1ccc(C(=O)NCCC(=O)O)cc1)[C@@H](Oc1cc(C(F)(F)F)nc2ccccc12)c1ccc(Cl)cc1 [Example 70, N-(4-{(1R)-1-[(R)-[(2-trifluoromethylquinolin-4-yl)oxy](4-chlorophenyl)methyl]butyl}benzoyl)-β-alanine] |
| 1.4 nM | CCC[C@H](c1ccc(C(=O)NCCC(=O)O)cc1)[C@@H](Oc1cc(C#N)c(Cl)c(C(F)(F)F)c1)c1ccc(Cl)cc1 [Example 78, N-(4-{(1R)-1-[(R)-[4-chloro-3-cyano-5-(trifluoromethyl)phenoxy](4-chlorophenyl)methyl]butyl}benzoyl)-β-alanine] |
| 11 nM | CCC[C@H](c1ccc(C(=O)NCCC(=O)O)cc1)[C@@H](Oc1cc(C(C)(C)C)cc(C(C)(C)C)c1)c1ccc(Cl)cc1 [Example 5] |
| 7.9 nM | CCC[C@H](c1ccc(C(=O)NCCC(=O)O)cc1)[C@H](Oc1ccc(C(F)(F)F)cc1)c1ccc(Cl)cc1 [Example 62] |
| 6.3 nM | CCC[C@H](c1ccc(C(=O)NCCC(=O)O)cc1)[C@@H](Oc1cc(C#N)cc(-c2ccc(C(F)(F)F)cc2)c1)c1ccc(Cl)cc1 [Example 36] |
| 2.5 nM | CCC[C@H](c1ccc(C(=O)NCCC(=O)O)cc1)[C@@H](Oc1cc(C#N)cc(C(F)(F)F)c1)c1ccc(OC(F)(F)F)cc1 [Example 77, N-[4-((1R)-1-{(R)-(4-trifluoromethoxyphenyl)[3-cyano-5-(trifluoromethyl)phenoxy]methyl}butyl)benzoyl]-β-alanine] |
| 4.8 nM | CCC[C@H](c1ccc(C(=O)NCCC(=O)O)cc1)[C@@H](Oc1cc(C#N)cc(C(F)(F)F)c1)c1ccc(Cl)cc1 [Example 76, N-[4-((1R)-1-{(R)-(4-chlorophenyl)[3-cyano-5-(trifluoromethyl)phenoxy]methyl}butyl)benzoyl]-β-alanine] |
| 4.5 nM | CCC[C@H](c1ccc(C(=O)NCCC(=O)O)cc1)[C@@H](Oc1ccnc2cc(Cl)ccc12)c1ccc(Cl)cc1 [Example 69, N-[4-((1R)-1-{(R)-(4-chlorophenyl)[(7-chloroquinolin-4-yl)oxy]methyl}butyl)benzoyl]-β-alanine] |

Same assay, conditions: comparison of major and minor racemic diastereomers

| more potent glucagon receptor antagonist of the two diastereomers | Structure (SMILES) |
| --- | --- |
| more potent glucagon receptor antagonist | CCCC(c1ccc(C(=O)NCCC(=O)O)cc1)C(COc1ccc2cc(OC)ccc2c1)c1ccc(Cl)cc1 (stereo not drawn) [86 major diastereomer] |
